{
  "source": "patent US20260216109A1",
  "about": "“TREATMENT OF SKIN DISORDERS WITH SHORT CHAIN FATTY ACIDS” (Temple University-Of The Commonwealth System of Higher …, priority 2023, published 2026)",
  "key": {"[1]": {"tested_on": "imiquimod (IMQ)-induced psoriasis model mice", "assay": "Ear skin thickness, IMQ-induced psoriasis model in mice", "format": "in vivo, mouse", "method": "Topical application of IMQ, a TLR7/8 ligand and potent immune activator induced and exacerbated psoriasis in mice. The mouse IMQ-induced psoriasis (IMQ Ps) model was initiated by a repeated topical application of Aldara© cream (containing 5% IMQ) over 6 consecutive days. Female Balb/c mice (9 weeks of age at reception, ordered with 20 g, Charles River, Sulzfeld, Germany; n=10 mice/group, exception healthy controls n=4) received daily a topical application of 62.5 mg of commercially available IMQ cream (5% Aldara©) on the beforehand (day −1) shaved (~2 cm×3 cm), depilated (Pilka© cream) back skin, and 7 mg on the outer right ear skin for 6 consecutive days, translating in a daily dose of approximately 3.5 mg IMQ. Healthy control mice were included in the study and were treated with vehicle cream (Vaseline; Bombastus-Werke AG) only instead of IMQ. Additionally, an IMQ disease control group was also included.\nBefore starting treatment on the day of disease induction (day 0), mice were randomized based on body weight to the respective group. […]\nThe added-up score (erythema plus scaling plus thickening), named disease severity score (scale 0-9), served then as marker for the severity of back skin inflammation. In addition, ear thickness of the right ear was determined daily by using an automatized caliper (Bayer AG, Germany).\nDisease Severity Score was evaluated on a daily base starting with the induction of psoriasis by IMQ application (day 0) until the end (day 6) of the study. The extent of ear thickness of the IMQ-treated right ear was determined daily by using an automatized caliper (Bayer AG, Germany) as described in Example 4.\nEar thickening, one of the disease severity score parameters, was evaluated in IMQ-treated mice (FIG. 60 and FIG. 61). The extent of ear thickness of the IMQ-treated right ear was determined daily by using an automatized caliper (Bayer AG, Germany) as described in Example 4."}, "IL-31": {"tested_on": "IL-31", "assay": "Multiplex (MSD V-PLEX) cytokine release, InflammaSkin: IL-31", "format": "cell-based, human", "conditions": "Example 2; Day 7 supernatant; 1 μM Otezla or SCFA systemic; vs untreated InflammaSkin", "method": "(§1) A total of 16 biopsies of 15 mm diameter were produced from a single donor. Two NativeSkin® models with 12/15 mm silicon rings were produced from the biopsies according to standard procedures in place, and cultured under cell culture conditions (37° C., 5% CO2, max. humidity) for 7 days with 2 mL of standard NativeSkin® medium renewed every day. Fourteen PSO-InflammaSkin® models with 12/15 mm silicon rings were produced by inducing in situ activation and Th17/Th1 polarization of skin resident T cells with a proprietary cocktail, and cultured under cell culture conditions (37° C., 5% CO2, max. humidity) for 7 days with 2 mL of PSO-InflammaSkin® culture medium renewed every day. […]\n(§2) Human pro-inflammatory cytokines released in the supernatant were quantified using the V-PLEX Human IL-17A Kit (MesoScale Discovery, reference: K151RFD-1) and V-PLEX Human custom Pro-inflammatory. […]\n(§3) Samples were diluted four times for plate 2 and two times for plate 1. Samples and standards were assessed in duplicate. Plates were read on MesoScale Discovery Quickpleax SQ 120 plate reader and values expressed in pg/mL.\n(§4) A statistical analysis was performed. […] First, the distribution's normality of the two compared group was assessed. […] If the two distributions were normal, the homogeneity of variances was assessed using a Fisher test on the variances. […]"}, "MIP-3α": {"tested_on": "MIP-3α", "assay": "Multiplex (MSD V-PLEX) cytokine release, InflammaSkin: MIP-3α", "format": "cell-based, human", "conditions": "Example 2; 1 μM Otezla systemic; compared to untreated InflammaSkin", "method": "as §1, §2, §3, §4"}, "[2]": {"assay": "Observations of animal well-being in IMQ-induced psoriasis model mice", "format": "in vivo, mouse"}, "IL-22": {"tested_on": "IL-22", "assay": "Multiplex (MSD V-PLEX) cytokine release, InflammaSkin: IL-22", "format": "cell-based, human", "conditions": "Example 2; Day 7 supernatant; 1 μM Otezla or SCFA systemic, 0.05% Betamethasone topical; vs untreated InflammaSkin", "method": "as §1, §2, §3, §4"}, "IL-21": {"tested_on": "IL-21", "assay": "Multiplex (MSD V-PLEX) cytokine release, InflammaSkin: IL-21", "format": "cell-based, human", "conditions": "Example 2; 1 μM Otezla systemic; compared to untreated InflammaSkin", "method": "as §1, §2, §3, §4"}, "[3]": {"assay": "Body weight in IMQ-induced psoriasis model mice", "format": "in vivo, mouse", "method": "Body weight was determined daily in all mice over the whole period of each study. Oral treatment with either Apremilast (25 mg/kg BID) or SFA002 (fixed dose BID) started with the disease induction on day 0. Etanercept (10 mg/kg Q3D s.c.) served as a technical control. Healthy control and IMQ control group received no placebo treatment."}},
  "data": [
    {"compound": "CCOc1cc([C@@H](CS(C)(=O)=O)N2C(=O)c3cccc(NC(C)=O)c3C2=O)ccc1OC", "note": "[Otezla, Apremilast]", "values": [
      {"measurement": "ear thickness", "setting": "[1]; Example 7, Apremilast low dose (2.5 mg/kg BID), oral, alone", "result": "did not show any inhibitory influence on ear thickness"},
      {"measurement": "ear thickness", "setting": "[1]; Example 7, Apremilast mid and high dose (5 and 7 mg/kg BID), oral, alone", "result": "inhibited"},
      {"measurement": "ear thickness", "setting": "[1]; Example 12, day 6, Apremilast monotherapy, both doses (12 mg/kg and 25 mg/kg BID)", "result": "did not show any inhibitory influence on ear thickness at day 6"},
      {"measurement": "IL-31 secretion", "setting": "IL-31", "result": "reduced IL-31 (FIG. 10 and FIG. 17), but it was not significantly different from untreated InflammaSkin® models"},
      {"measurement": "increase of secretion of MIP-3a", "setting": "MIP-3α", "result": "about 50%"},
      {"measurement": "observations of animal well-being", "setting": "[2]; Example 4, SCFA fixed dose BID (120 + 2,146 mg/kg/day), Apremilast 50 mg/kg/day, oral, study duration", "result": "reduced activity, ruffled coat and were slightly hunched"},
      {"measurement": "observations of animal well-being", "setting": "[2]; Example 7, SCFA (120 + 1,100 mg/kg/day), Apremilast 2.5, 5, 7 mg/kg BID, or combinations, study duration", "result": "well tolerated"},
      {"measurement": "observations of animal well-being", "setting": "[2]; Example 8 (written in present tense), SCFA, Apremilast 2.5, 5, 7 mg/kg BID, or combinations", "result": "well tolerated"},
      {"measurement": "observations of animal well-being", "setting": "[2]; Example 9, SCFA fixed dose, Apremilast 25 mg/kg BID, or combination, study duration", "result": "well tolerated"},
      {"measurement": "observations of animal well-being", "setting": "[2]; Example 10 (written in present tense), SCFA, Apremilast 25 mg/kg BID, or combination", "result": "well tolerated"},
      {"measurement": "observations of animal well-being", "setting": "[2]; Example 12, SCFA fixed dose, Apremilast 12 or 25 mg/kg BID, or combinations, study duration", "result": "well tolerated"},
      {"measurement": "IL-22 secretion", "setting": "IL-22", "result": "significantly reduced"},
      {"measurement": "increase of secretion of IL-21", "setting": "IL-21", "result": "about 50%"},
      {"measurement": "body weight loss", "setting": "[3]; Example 4, Apremilast 25 mg/kg BID, SCFA fixed dose BID (120 + 2,146 mg/kg/day), oral", "result": "no effect on body weight loss"},
      {"measurement": "body weight loss", "setting": "[3]; Example 7, Apremilast 2.5, 5, 7 mg/kg BID, SCFA (120 + 1,100 mg/kg/day), alone or in combination, vs vehicle-treated IMQ disease controls", "result": "no positive influence on body weight loss"},
      {"measurement": "body weight loss", "setting": "[3]; Example 9, Apremilast 25 mg/kg BID, SCFA fixed dose, alone or in combination, vs vehicle-treated IMQ disease controls", "result": "no positive influence on body weight loss"},
      {"measurement": "body weight loss", "setting": "[3]; Example 12, Apremilast 12 or 25 mg/kg BID, fixed dose SCFA, alone or in combination, vs vehicle-treated IMQ disease controls", "result": "no positive influence on body weight loss"}
    ]}
  ]
}
